Measurements as given in patent publication US20260355318A1, “MOLECULAR MACHINES FOR TREATMENT OF CANCER, FUNGAL INFECTIONS, OR BACTERIAL INFECTIONS” (priority 2022, published 2026).

How the values were obtained:
[1] = Singlet oxygen generation (DPBF); settings: irradiated
Excerpt: Percentage of DCFH-DA-(FIG. 45E) and APF-(FIG. 45F) positive cells, as detected using flow cytometry. UV-VIS spectra of the singlet oxygen trap DPBF in the presence of the fast antibacterial motor MM 1 (FIG. 45G) or the inert slow motor ARV 3-202 (FIG. 45H). (FIG. 451) Rate of decrease of the absorption of DPBF at 410 nm, indicative of singlet oxygen generation, in the presence of MM 1 or its slow analog ARV 3-202. […] Flow cytometry data (at least 10 000 cells) was acquired in a spectral analyzer (Sony SA3800) and analyzed using FlowJo software. Results are shown as the mean of at least 3 biological replicas±standard error of the mean. Comparisons between samples were performed in GraphPad Prism 8 using a Kruskal-Wallis test for comparison between three or more samples or an unpaired t-test for comparisons between two samples. * p<0.05. not significant=n.s.

C. albicans = experiment: In vivo G. mellonella model, C. albicans infection (survival, fungal burden); set-up: species or system Galleria mellonella; settings: C. albicans-infected G. mellonella, 1×MIC
Description: The in vivo antifungal activity of MMs was assessed in G. mellonella (Li et al., 2013; (Slater et al., 2011). G. mellonella were acquired from a commercial supplier (rainbowmealworms.net) in their final instar larval stage. Worms of similar size (~0.3 g), responsive to touch, and displaying no signs of melanization were selected. C. albicans (~10^5 CFU mL^−1) and A. fumigatus conidia (~104 conidia mL^−1) suspensions were prepared in PBS as previously described. The fungal inoculum (5 μL) was injected into the last left proleg of the worms with a Hamilton syringe. Thirty minutes after infection, MM and/or antifungal agents (1×MIC, Table 2) diluted in sterile water were injected similarly to the right proleg. […] After 30 min, worms in the irradiated treatment groups were transferred to 24-well plates (Corning-Costar Corp., Corning, NY, USA) and irradiated with 405-nm light (87.6 J cm^−2). Worms were incubated in sterile Petri dishes at 30 ° C in the dark. Live and dead worms were scored each day for 7 days. Melanized or unresponsive worms were considered dead.
Fungal load was assessed in a separate group of similarly treated worms 48 h after infection. Only healthy larvae (four worms per treatment group) with no melanization spots were used. […] After 48 h at 30 ° C (C. albicans) or 7 days at 28 ° C (A. fumigatus), colonies were counted to determine CFU per mg of larvae.

[2] = system: mature C. albicans biofilms; experiment: Biofilm viability (XTT assay); assay type: cell-based, Candida albicans; settings: 2×, 4×MIC, vs DMSO, MMs with 87.6 J cm^−2 405-nm light
Description: The antibiofilm activity of MMs was investigated using 96-well microtiter plates with flat-bottom wells as a closed static biofilm reactor. This setup is reliable, inexpensive, easy to use and obtain, and requires no additional equipment (Pierce et al., 2010). Two parameters were used to evaluate antibiofilm activity: biofilm biomass and biofilm viability. Biofilm biomass was determined using the crystal violet method (Martins et al, 2010), a simple, inexpensive, and readily accessible method for determining biofilm biomass. However, because crystal violet binds both live and dead cells as well as extracellular polymeric substances, it cannot be used alone to reliably assess antibiofilm activity. To overcome this limitation, the XTT assay was used to evaluate biofilm viability (Nett et al., 2011). […] The resulting formazan can be easily detected by measuring the absorbance at 490 nm, which is proportional to the number of living cells, providing a reliable quantitative measurement of metabolically active cells in biofilms (Taff et al., 2012). […]
Biofilm viability was determined using an XTT cell viability assay kit (Biotium, Hayward, CA, USA) per the manufacturer's instructions. […] Normalized absorbance values were obtained by subtracting the background from the signal.

E. cloacae = experiment: MIC, E. cloacae; assay type: cell-based; settings: Enterobacter cloacae, read-out: MIC of MM
Description: The appropriate volume of an MM stock at 8 mM necessary to achieve a concentration ranging from 0.3125 to 40 μM was pipetted into a 2 mL microcentrifuge tube to which 1 mL of cell suspension prepared as previously described was added. Corresponding negative controls (DMSO only) were prepared in the same way. The mixture was gently mixed by pipetting and incubated in the dark at 30 or 37 ° C, depending on the strain, for 30 min with agitation (220 rpm). Afterward, MM- or DMSO-treated cells were dispensed in one well of a 24-well plate positioned in the center of the light beam (405 nm LED Light, Prizmatix, UHP—F-5-405) placed at the appropriate distance necessary to achieve the desired light intensity of 304 mW cm-2, 146 mW cm2 or 87 mW cm2, as measured with a handheld digital power meter console coupled to an S415C thermal power sensor head (Thorlabs, Newton, MA, USA). The temperature during irradiation was monitored using a thermocouple probe (Model SC-TT-K-30-36-PP; Omega Engineering, Inc., Stanford, CT, USA). Samples were agitated during irradiation. Dark controls were prepared as previously described except that no irradiation was provided. […]

C[C@@H]1Cc2ccc3ccccc3c2/C1=C1\c2ccccc2Sc2cc(NCCN(C)C)ccc21 [MM 1, N^1N^1-dimethyl-N^2-(9-(2-methyl-2,3-dihydro-1H-cyclopenta[a]naphthalen-1-ylidene)-9H-thioxanthen-3-yl) ethane-1,2-diamine]
singlet oxygen generation [1]: lower than that of its slow, inert counterpart | time by which all worms died (C. albicans): ≤ 3 days | reduction of biofilm viability [2]: up to 96%

C[C@@H]1Cc2ccc3ccccc3c2/C1=C1\c2ccccc2Sc2cc(NCCN)ccc21 (racemic) [MM 6, N^1-(9-(2-methyl-2,3-dihydro-1H-cyclopenta[a]naphthalen-1-ylidene)-9H-thioxanthen-3-yl)ethane-1,2-diamine]
MIC (E. cloacae): 10 µM
